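Growth conditions: 96-well plates. Treatment: test compound, 48 hours, 5 concentrations. Analysis: linear interpolation between bracketing concentrations; unreached endpoints set to highest concentration. GI50 marks 50% less growth. TGI: total growth inhibition.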
Columns and labels:
Experiment in all cases: NCI tumour cell line growth inhibition, 48 h
RXF 393 renal = tested on: RXF 393 renal
U251 CNS = tested on: U251 CNS
HS 578T breast = tested on: HS 578T breast
MDA-N = tested on: MDA-N
HOP-92 NSCLC = tested on: HOP-92 NSCLC
MDA-MB-435 = tested on: MDA-MB-435
TK-10 renal = tested on: TK-10 renal
MDA-MB-231 breast = tested on: MDA-MB-231 breast
SK-MEL-28 melanoma = tested on: SK-MEL-28 melanoma
UACC-257 melanoma = tested on: UACC-257 melanoma

Row | Compound | TGI (RXF 393 renal) [µM] | TGI (U251 CNS) [µM] | TGI (HS 578T breast) [µM] | TGI (MDA-N) [µM] | TGI (HOP-92 NSCLC) [µM] | TGI (MDA-MB-435) [µM] | TGI (TK-10 renal) [µM] | TGI (MDA-MB-231 breast) [µM] | TGI (SK-MEL-28 melanoma) [µM] | TGI (UACC-257 melanoma) [µM] | GI50 (HS 578T breast) [µM] | GI50 (MDA-MB-435) [µM] | GI50 (TK-10 renal) [µM] | GI50 (MDA-MB-231 breast) [µM]
1 | c1ccc(-c2cnc(-c3ccc(-c4ncc(-c5ccccc5)o4)cc3)o2)cc1 | > 100 | > 100 | > 100 | > 100 | > 100 | > 100 | > 100 | > 100 | > 100 | > 100 | – | – | – | –
2 | O=C1CC(Sc2nc3ccc(I)cc3c(=O)n2Cc2ccccc2)C(=O)NN1 (stereo not given) | – | 29.4 | 42.4 | 33.4 | 37.2 | 33.9 | 30.5 | 29.3 | 31.7 | 35.3 | – | – | – | –
3 | CC(C)(C)OC(=O)n1c(-c2ccccc2F)cc(=O)c2cc3c(cc21)OCO3 | > 40.3 | > 32.9 | 1.41 | – | > 100 | > 100 | > 100 | – | > 100 | – | – | – | – | –
4 | CSC(SC)=C1C(=O)N(c2ccccc2)N=C1C | 74.4 | > 100 | > 100 | > 100 | 33.7 | – | > 100 | > 100 | – | > 100 | – | – | – | –
5 | Cc1cc2c(nn1)-c1ccccc1C2=O | > 10 | > 10 | > 10 | > 10 | > 10 | > 10 | > 10 | > 10 | > 10 | – | – | – | – | –
6 | N#Cc1c(C#N)c(-c2ccccc2)n(-c2ccccc2)c1N | > 100 | > 100 | > 100 | > 100 | – | > 100 | > 100 | > 100 | – | > 100 | – | – | – | –
7 | CC(C)(C)C(=O)C(Cc1ccccc1)C(=O)C(C)(C)C | > 100 | > 100 | > 100 | > 100 | > 100 | – | > 100 | > 100 | > 100 | > 100 | – | – | – | –
8 | CC1=CC(=O)C(C(O)(C(F)(F)F)C(F)(F)F)C(C)(C)C1 (stereo not given) | > 10 | > 10 | > 10 | > 10 | – | > 10 | > 10 | > 10 | > 10 | > 10 | – | – | – | –
9 | CC(O)CC(O)(C(F)(F)F)C(F)(F)F (stereo not given) | > 10 | > 10 | > 10 | > 10 | – | > 10 | > 10 | > 10 | > 10 | > 10 | – | – | – | –
10 | CCCCC/C(C=O)=C\c1ccccc1 | > 100 | > 100 | > 100 | – | > 100 | > 100 | > 100 | > 100 | > 100 | > 100 | – | – | – | –
11 | C[C@]12CC[C@H](O)C=C1CC[C@@H]1[C@@H]2CC[C@]2(C)C(c3ccc(=O)oc3)CC[C@]12O (stereo not given in full) | < 0.0125 | 0.102 | – | – | 0.0448 | – | – | – | 0.222 | 0.0777 | – | – | – | –
12 | Cc1c2ccncc2c(C)c2c1[nH]c1ccccc12 | 0.595 | 2.08 | 5.45 | – | 2.59 | 2.21 | 2.6 | 6.03 | 3 | 4.64 | 1.37 | 0.762 | 0.79 | 1.45

Reference: PubChem BioAssay (NCI)
